The test system of test [1] is Rv0678_2 mutant. In kind it is cell-based, Mycobacterium tuberculosis.
In test [2] the test system is Rv0678_J4 mutant. The class given is cell-based, Mycobacterium tuberculosis.

Our source for the MIC values is PMC11838007, “Contribution of telacebec to novel drug regimens in a murine tuberculosis model” (Antimicrobial Agents and Chemotherapy, 2024).

Converted amounts (≈) assume the structure as drawn.

The term MIC denotes the least concentration at which growth counts as inhibited. A high value points to weaker potency. Regarding `CCc1nc2ccc(Cl)cn2c1C(=O)NCc1ccc(N2CCC(c3ccc(OC(F)(F)F)cc3)CC2)cc1` [Telacebec, telacebec], the MIC in test [1] was 8 ng/mL (≈ 0.0144 µM); in test [2] it was 4 ng/mL (≈ 0.00718 µM).
